Source: publication PMC3909264, “A Novel Acylaminoimidazole Derivative, WN1316, Alleviates Disease Progression via Suppression of Glial Inflammation in ALS Mouse Model” (PLoS ONE, 2014)
Where a name gives a salt, the structure may show the parent alone.

Tests used:
[1] = Water solubility (stated property); type: physicochemical
HO-1 mRNA = test: qRT-PCR of HO-1 mRNA in lumbar spinal cord of wild type mice; type: in vivo, mouse (C57BL/6N); conditions: 100 µg/kg oral, 3 h post-administration
Description: Wild type mice at 8 weeks of age (male, C57BL/6N) were administered per os with either vehicle (physiological saline) or WN1316 (100 µg/kg body weight). After 1 h, 3 h, 6 h and 9 h, mice were transcardially perfused with physiological saline containing 10% heparin under anesthesia with 2% isoflurane by inhalation, and the lumbar spinal cord was dissected. Total RNA was extracted from lumbar spinal cord using Sepasol-RNA I Super G (Nacalai Tesque), and purified by SV Total RNA Isolation System (Promega) according to manufacturer's instructions. qRT-PCR was performed with QuantiFast™ SYBR Green RT-PCR Kit (QIAGEN) on CFX96 (BIO RAD). The PCR primers (QuantiTect Primer Assays) for HO-1 (Mm_Hmox1_1_SG) and PPIA (Mm_Ppia_1_SG) were purchased from QIAGEN. The levels of all transcripts were normalized for the PPIA mRNA level in each sample. Relative expression was calculated using the ΔΔCt method (Livak 2001).

ALS(SOD1^H46R) mice = test: Histopathology, immunohistochemistry and Western blot of spinal cord, ventral root and muscle of treated ALS(SOD1^H46R) mice; type: in vivo, mouse
Description: At 21–22 weeks of age (late-symptomatic stage), mice were anesthetized with 2% isoflurane by inhalation. Anesthetized mice were transcardially perfused with physiological saline containing 10% heparin, followed by 4% paraformaldehyde (PFA) in 0.1 M phosphate buffer (PB) (pH 7.2). Spinal cord was removed, and lumbar segment was dissected.
For the preparation of paraffin-embedding tissue, lumbar segment was post-fixed with the same fixative for 48 h at 4°C and embedded in paraffin. Serial transverse sections (6 µm thickness) of lumbar segment (L4–L5) were sliced and stained with hematoxylin and eosin (H&E) for histopathological evaluation.
For the preparation of frozen-embedding tissue, lumbar segment was post-fixed with 4% PFA in 0.1 M PB (pH 7.2) for 24 h at 4°C, and then processed in 30% sucrose in 0.1 M PB (pH 7.2) containing 0.1% NaN3 for 96 h at 4°C (for cryoprotection) followed by frozen-embedding. Ten µm frozen sections were cut on a cryostat and used for fluorescent immunohistochemistry.
Immunohistochemical analyses with anti-ChAT, anti-Iba-1, anti-GFAP, anti-MAP2, anti-IL-1β and anti-8-OHdG antibodies were performed. For immunostaining with anti-ChAT antibody, the deparaffinized sections from late-symptomatic mice were pre-treated by autoclaving at 121°C for 5 min in HISTOFINE antigen retrieval solution (pH 9.0) (Nichirei). For immunostaining with anti-Iba-1 antibody, the deparaffinized sections from late-symptomatic mice were pre-treated by autoclaving at 121°C for 10 min in 10 mM citrate buffer (pH 6.0). For immunostaining with anti-GFAP antibody, the deparaffinized sections were used without any pretreatment. The sections were incubated with 0.3% H2O2 in methanol for 30 min and then with phosphate-buffered saline (PBS) (pH 7.2) containing 0.3% Triton X-100 for 30 min. After the treatment with PBS containing 5% normal goat serum (NGS) (Vector Laboratories)/0.05% Triton X-100 or 5% normal rabbit serum (NRS) (Vector Laboratories)/0.05% Triton X-100 for 1 h at room temperature, the sections were incubated with either anti-GFAP or anti-Iba-1 antibody in PBS containing 1.5% NGS/0.05% Triton X-100 or with anti-ChAT antibody in PBS containing 1.5% NRS/0.05% Triton X-100 overnight at 4°C. The sections were then incubated with HISTOFINE simple stain mouse MAX-PO (R) (Nichirei) or with HISTOFINE simple stain mouse MAX-PO (G) (Nichirei) for 1 hr at room temperature. The sections were visualized using 0.05% 3,3-diaminobenzidine tetrahydrochloride (DAB) (Wako) and 0.015% H2O2 in 50 mM Tris-HCl (pH 7.5) buffer, and the DAB reaction products were observed under a light microscope (BIOREVO BZ-9000, KEYENCE).
For double-immunostaining using frozen section, sections from late-symptomatic mice were washed with PBS, and treated with PBS containing 3% normal horse serum (NHS) (Vector Laboratories)/0.3% Triton X-100 for 1 h at room temperature. The sections were incubated with anti-IL-1β antibody in PBS containing 0.01% Triton X-100 for 48 h at 4°C, and then were incubated with CF^TM488A donkey anti-goat IgG (H+L) (1∶400, Biotium) in PBS containing 0.01% Triton X-100 for 1 h at room temperature. Next, the sections were incubated with anti-GFAP, anti-Iba-1 or anti-MAP2 antibody in PBS containing 0.01% Triton X-100 overnight at 4°C, and then were incubated with CF^TM555 goat anti-rabbit IgG (H+L) (1∶400, Biotium) in PBS containing 0.01% Triton X-100 for 1 h at room temperature. Fluorescent signals were observed under a light microscope (BIOREVO BZ-9000, KEYENCE).
For double-immunostaining of deparaffinized tissue, sections from late-symptomatic mice were pre-treated by autoclaving at 121°C for 10 min in 10 mM citrate buffer (pH 6.0). After the treatment with PBS containing 5%NGS/0.05% Triton X-100, the sections were incubated with anti-8-OHdG and anti-GFAP, anti-Iba-1 or anti-MAP2 antibodies in PBS containing 1.5% NGS/0.05% Triton X-100 overnight at 4°C. […]

[2] = system: total GSH in differentiated SH-SY5Y cells; test: Measurement of intracellular glutathione (GSH/GSSG-Glo); type: cell-based, human; conditions: 1–20 µM, 8 h
Description: Differentiated SH-SY5Y cells were treated with various concentrations of WN1316 (1–20 µM) or vehicle control (DMSO). After 8 h incubation, the cellular oxidized (GSSG) and reduced glutathione (GSH) levels were measured using the GSH/GSSG-Glo™ Assay kit (Promega) according to the manufacturer’s instructions. GSH and GSSG levels were normalized to protein concentrations.

Cc1cc(C)c(N(C)CC(=O)Nc2nc(-c3ccccn3)c[nH]2)c(C)c1 [WN1316, 2-[mesityl(methyl)amino]-N-[4-(pyridin-2-yl)-1H-imidazol-2-yl] acetamide trihydrochloride]
water solubility (in words) [1]: highly soluble in water
HO-1 mRNA in the lumbar spinal cord (HO-1 mRNA): transient induction
DNA oxidation (8-OHdG) in lumbar spinal cord (ALS(SOD1^H46R) mice; 10 µg/kg, 21–22 weeks of age): remarkable reduction
IL-1β immunoreactivity in astrocytes (ALS(SOD1^H46R) mice; 10 µg/kg, 21–22 weeks of age): diminished dramatically
iNOS generation in lumbar spinal cord (Western blot) (ALS(SOD1^H46R) mice; 10 µg/kg, 21–22 weeks of age): decreased
large myelinated axons in the L5 ventral root (ALS(SOD1^H46R) mice; 10 µg/kg, 21–22 weeks of age): preservation of large myelinated axons
GFAP and Iba-1 immunoreactivity in lumbar spinal cord anterior horn (ALS(SOD1^H46R) mice; 10 µg/kg, 21–22 weeks of age, vs vehicle): significant reduction
protein levels of mutant SOD1 in NP-40-soluble and NP-40-insoluble/SDS-soluble fractions (ALS(SOD1^H46R) mice; 10 µg/kg, vs vehicle, 21–22 weeks of age): no significant differences
loss of ChAT-positive motor neurons compared with non-Tg littermates (ALS(SOD1^H46R) mice; 10 µg/kg/day, lumbar L4–L5, 21–22 weeks of age (vehicle 35.5%)): 15.2%
skeletal muscle integrity (quadriceps femoris) (ALS(SOD1^H46R) mice; 21–22 weeks of age): preserved the skeletal muscle integrity
total GSH level [2]: upregulation of total GSH level
